Tested on: MAb 2G12 binding to HIV-1IIIB gp120
Test: Competitive ELISA: inhibition of 2G12 binding to immobilized gp120 by carbohydrate antigens
Set-up: species or system human
Settings: for Relative Affinity, Molar basis / Relative Affinity, Valency-corrected: Table 1; for Relative Affinity, Molar basis: from IC50, relative to Man9GlcNAc2Asn = 1.0; for Relative Affinity, Valency-corrected: from IC50, relative to Man9GlcNAc2Asn = 1.0, per oligosaccharide subunit; for affinity for 2G12 binding, Man9GlcNAc compared with Man9GlcNAc2Asn: result in words
Procedure: Competitive ELISAs were performed to determine the relative inhibition potency of various carbohydrate antigens against the binding of 2G12 to gp120. Microtiter plates were coated with human cell line 293-expressed HIV-1IIIB gp120 (100 ng/ml) overnight at 4° C. After washing, non-specific binding was blocked with 5% BSA in PBS for 1 h at room temperature. The plates were then washed three times with 0.1% Tween-20/PBS. Serial dilutions (1:2) of various carbohydrate antigens were mixed with an equal volume of MAb 2G12 (fixed final concentration of 5 ng/ml) and added to the plates. The plates were incubated for 1 h at 37° C. and washed with washing buffer. To the plates was added a 100-μl solution of 1:3000 diluted horseradish peroxidase-conjugated goat anti-human IgG in 0.5% BSA/PBS. After incubation for 1 h at 37° C., the plates were washed again and a 100-μl solution of 3,3′,5,5′-tetramethyl benzidine (TMB) was added. Color was allowed to develop for 5 min, and the color reaction was quenched through adding a 100-μl solution of 0.5 M H2SO4 to each well. The optical density was then measured at 450 nm.
The binding affinity of the high-mannose oligosaccharides was examined by competitive inhibition of 2G12 binding to immobilized gp120, as shown in FIG. 14.
The synthetic Man9-clusters were examined for competitive inhibition of 2G12 binding to immobilized gp120 (FIG. 16).

| Compound | Relative Affinity, Molar basis | Relative Affinity, Valency-corrected | affinity for 2G12 binding, Man9GlcNAc compared with Man9GlcNAc2Asn | fold more effective in inhibition of 2G12 binding than Man5GlcNAc (on a molar basis, versus Man5GlcNAc) [fold] | fold more effective in inhibition of 2G12 binding than Man6GlcNAc (on a molar basis, versus Man6GlcNAc) [fold] |
| --- | --- | --- | --- | --- | --- |
| CC(=O)N[C@H]1C(O)O[C@H](CO)[C@@H](O[C@@H]2O[C@H](CO[C@H]3O[C@H](CO[C@H]4O[C@H](CO)[C@@H](O)[C@H](O)[C@@H]4O)[C@@H](O)[C@H](O[C@H]4O[C@H](CO)[C@@H](O)[C@H](O)[C@@H]4O)[C@@H]3O)[C@@H](O)[C@H](O[C@H]3O[C@H](CO)[C@@H](O)[C@H](O)[C@@H]3O)[C@@H]2O)[C@@H]1O (stereo partly drawn) [Man5GlcNAc] | 0.004 | 0.004 | – | – | – |
| CC(=O)N[C@@H]1[C@@H](O)[C@H](O[C@@H]2O[C@H](CO)[C@@H](O[C@@H]3O[C@H](CO[C@H]4O[C@H](CO[C@H]5O[C@H](CO)[C@@H](O)[C@H](O)[C@@H]5O[C@H]5O[C@H](CO)[C@@H](O)[C@H](O)[C@@H]5O)[C@@H](O)[C@H](O[C@H]5O[C@H](CO)[C@@H](O)[C@H](O)[C@@H]5O[C@H]5O[C@H](CO)[C@@H](O)[C@H](O)[C@@H]5O)[C@@H]4O)[C@@H](O)[C@H](O[C@H]4O[C@H](CO)[C@@H](O)[C@H](O)[C@@H]4O[C@H]4O[C@H](CO)[C@@H](O)[C@H](O)[C@@H]4O[C@H]4O[C@H](CO)[C@@H](O)[C@H](O)[C@@H]4O)[C@@H]3O)[C@H](O)[C@H]2NC(C)=O)[C@@H](CO)O[C@H]1NC(=O)C[C@H](N)C(=O)O [Man9GlcNAc2Asn] | 1.0 | 1.0 | essentially the same affinity | – | – |
| CC(=O)N[C@H]1C(O)O[C@H](CO)[C@@H](O[C@@H]2O[C@H](CO[C@H]3O[C@H](CO[C@H]4O[C@H](CO)[C@@H](O)[C@H](O)[C@@H]4O[C@H]4O[C@H](CO)[C@@H](O)[C@H](O)[C@@H]4O)[C@@H](O)[C@H](O[C@H]4O[C@H](CO)[C@@H](O)[C@H](O)[C@@H]4O[C@H]4O[C@H](CO)[C@@H](O)[C@H](O)[C@@H]4O)[C@@H]3O)[C@@H](O)[C@H](O[C@H]3O[C@H](CO)[C@@H](O)[C@H](O)[C@@H]3O[C@H]3O[C@H](CO)[C@@H](O)[C@H](O)[C@@H]3O[C@H]3O[C@H](CO)[C@@H](O)[C@H](O)[C@@H]3O)[C@@H]2O)[C@@H]1O (stereo partly drawn) [Man9GlcNAc] | 0.84 | 0.84 | essentially the same affinity | 244 | 85 |
| Man6GlcNAc | 0.012 | 0.012 | – | – | – |

From patent US7556806B2, “Carbohydrate-based synthetic vaccines for HIV” (University of Maryland Biotechnology Institute, priority 2002, dated 2009)
